Assays:
[1] = Ratio of kcat/km of PKS TEs assessed as hydrolysis of 6-deoxyerythronolide-B
[2] = Activity at PKS TEs assessed as hydrolysis of epothilone
[3] = Ratio of kcat/km of PKS TEs assessed as hydrolysis of epothilone
[4] = Ratio of kcat/km of PKS TEs assessed as hydrolysis of pimaricin
[5] = Activity at PKS TEs assessed as hydrolysis of pimaricin

Structure (SMILES) | kcat/Km [1] [M⁻¹ s⁻¹] | Km [2] [µM] | kcat [2] [s⁻¹] | kcat/Km [3] [M⁻¹ s⁻¹] | kcat/Km [4] [M⁻¹ s⁻¹] | Km [5] [µM] | kcat [5] [s⁻¹]
CC(=O)NCCSC(=O)CNC(=O)[C@H](C)NC(=O)OC(C)(C)C | 0.39 | 2900 | 0.32 | 110 | – | – | –
CC(=O)NCCSC(=O)CNC(=O)[C@@H](C)NC(=O)OC(C)(C)C | 0.8 | 1300 | 0.0517 | 38.8 | – | – | –
CC(=O)NCCSC(=O)CCCCCCNC(=O)OC(C)(C)C | 1.47 | 400 | 0.0303 | 75.1 | 23.3 | 800 | 0.02
CC(=O)NCCSC(=O)CCNC(=O)c1ccccc1 | 7.75 | – | – | 24.2 | 1.14 | – | –
CC(=O)NCCSC(=O)[C@H](C)NC(=O)OC(C)(C)C | 0.88 | – | – | 91.3 | – | – | –
CC(=O)NCCSC(=O)[C@@H](C)NC(=O)OC(C)(C)C | 0.5 | – | – | 12.5 | – | – | –
CC(=O)NCCSC(=O)CNC(=O)OC(C)(C)C | 7 | – | – | 145 | 1.29 | – | –

Reference: ChEMBL document CHEMBL1153262, “Polyketide synthase thioesterases catalyze rapid hydrolysis of peptidyl thioesters” (Bioorg Med Chem Lett, 2009)
